Source: patent US5202315A, “Cephalosporin compounds” (Lucky, Ltd., priority 1989, dated 1993)
Values after ≈ are worked out from the molar mass of the structure shown. Where two headings read alike, the source gives them in different places.

What was measured:
[1] = tested on: Acinetobacter calcoaceticus ATCC 15473; experiment: Antibacterial activity, MIC; assay type: cell-based; conditions: ATCC15473, ATCC 15473, agar two-fold dilution, 37° C., 20 hours, read-out: MIC
Protocol: (§1) Also, the in vitro antibacterial activity was determined by the by a two-fold dilution method as described below:
(§2) That is, the two-fold serial dilutions of the compound were made dispersed in Muller-Hinton agar medium. 2 μl of standard test strain which had the 10^7 CFU per ml was inoculated on the medium, and was incubated at 37° C. for 20 hours.

[2] = tested on: Bacillus cereus ATCC 11778; experiment: Antibacterial activity, MIC; assay type: cell-based; conditions: ATCC11778, ATCC 11778, agar two-fold dilution, 37° C., 20 hours, read-out: MIC
Protocol: as §1, §2

[3] = tested on: Bacillus megaterium ATCC 9885; experiment: Antibacterial activity, MIC; assay type: cell-based; conditions: Priestia megaterium, ATCC9885; ATCC 9885; agar two-fold dilution, 37° C., 20 hours; read-out: MIC
Protocol: as §1, §2

[4] = tested on: Citrobacter freundii ATCC 8090; experiment: Antibacterial activity, MIC; assay type: cell-based; conditions: ATCC8090, ATCC 8090, agar two-fold dilution, 37° C., 20 hours, read-out: MIC
Protocol: as §1, §2

[5] = tested on: Enterobacter aerogenes ATCC 29751; experiment: Antibacterial activity, MIC; assay type: cell-based; conditions: Klebsiella aerogenes, ATCC29751; ATCC 29751; agar two-fold dilution, 37° C., 20 hours; read-out: MIC
Protocol: as §1, §2

[6] = tested on: Enterobacter cloacae ATCC 27508; experiment: Antibacterial activity, MIC; assay type: cell-based; conditions: ATCC27508, ATCC 27508, agar two-fold dilution, 37° C., 20 hours, read-out: MIC
Protocol: as §1, §2

[7] = tested on: Escherichia coli ATCC 10536; experiment: Antibacterial activity, MIC; assay type: cell-based; conditions: ATCC10536, agar two-fold dilution, 37° C., 20 hours
Protocol: as §1, §2

[8] = tested on: Escherichia coli ATCC 25922; experiment: Antibacterial activity, MIC; assay type: cell-based; conditions: ATCC25922, agar two-fold dilution, 37° C., 20 hours
Protocol: as §1, §2

[9] = tested on: Klebsiella pneumoniae ATCC 10031; experiment: Antibacterial activity, MIC; assay type: cell-based; conditions: ATCC10031, ATCC 10031, agar two-fold dilution, 37° C., 20 hours, read-out: MIC
Protocol: as §1, §2

[10] = tested on: Micrococcus luteus ATCC 9341; experiment: Antibacterial activity, MIC; assay type: cell-based; conditions: ATCC9341, ATCC 9341, agar two-fold dilution, 37° C., 20 hours, read-out: MIC
Protocol: as §1, §2

[11] = tested on: Morganella morganii ATCC 8076h; experiment: Antibacterial activity, MIC; assay type: cell-based; conditions: ATCC8076H, agar two-fold dilution, 37° C., 20 hours
Protocol: as §1, §2

[12] = tested on: Proteus mirabilis ATCC 25933; experiment: Antibacterial activity, MIC; assay type: cell-based; conditions: ATCC25933, ATCC 25933, agar two-fold dilution, 37° C., 20 hours, read-out: MIC
Protocol: as §1, §2

[13] = tested on: Proteus vulgaris ATCC 6059; experiment: Antibacterial activity, MIC; assay type: cell-based; conditions: ATCC6059, ATCC 6059, agar two-fold dilution, 37° C., 20 hours, read-out: MIC
Protocol: as §1, §2

[14] = tested on: Providencia rettgeri ATCC 9250; experiment: Antibacterial activity, MIC; assay type: cell-based; conditions: ATCC9250, agar two-fold dilution, 37° C., 20 hours
Protocol: as §1, §2

[15] = tested on: Pseudomonas aeruginosa ATCC 10145; experiment: Antibacterial activity, MIC; assay type: cell-based; conditions: ATCC10145, ATCC 10145, agar two-fold dilution, 37° C., 20 hours, read-out: MIC
Protocol: as §1, §2

[16] = tested on: Pseudomonas aeruginosa ATCC 25619; experiment: Antibacterial activity, MIC; assay type: cell-based; conditions: ATCC25619, ATCC 25619, agar two-fold dilution, 37° C., 20 hours, read-out: MIC
Protocol: as §1, §2

[17] = tested on: Pseudomonas aeruginosa ATCC 27853; experiment: Antibacterial activity, MIC; assay type: cell-based; conditions: ATCC27853, ATCC 27853, agar two-fold dilution, 37° C., 20 hours, read-out: MIC
Protocol: as §1, §2

[18] = tested on: Salmonella typhimurium ATCC 14028; experiment: Antibacterial activity, MIC; assay type: cell-based; conditions: Salmonella enterica; ATCC 14028; agar two-fold dilution, 37° C., 20 hours; read-out: MIC
Protocol: as §1, §2

[19] = tested on: Serratia marcescens ATCC 27117; experiment: Antibacterial activity, MIC; assay type: cell-based; conditions: ATCC27117, ATCC 27117, agar two-fold dilution, 37° C., 20 hours, read-out: MIC
Protocol: as §1, §2

[20] = tested on: Shigella flexneri ATCC 11836; experiment: Antibacterial activity, MIC; assay type: cell-based; conditions: ATCC11836, agar two-fold dilution, 37° C., 20 hours
Protocol: as §1, §2

[21] = tested on: Shigella sonnei ATCC 11060; experiment: Antibacterial activity, MIC; assay type: cell-based
Protocol: as §1, §2

[22] = tested on: Staphylococcus aureus ATCC 10537; experiment: Antibacterial activity, MIC; assay type: cell-based; conditions: ATCC10537, ATCC 10537, agar two-fold dilution, 37° C., 20 hours, read-out: MIC
Protocol: as §1, §2

[23] = tested on: Staphylococcus aureus ATCC 6538p; experiment: Antibacterial activity, MIC; assay type: cell-based; conditions: ATCC6538P, ATCC 6538p, agar two-fold dilution, 37° C., 20 hours, read-out: MIC
Protocol: as §1, §2

[24] = tested on: Staphylococcus epidermidis ATCC 12228; experiment: Antibacterial activity, MIC; assay type: cell-based; conditions: ATCC12228, ATCC 12228, agar two-fold dilution, 37° C., 20 hours, read-out: MIC
Protocol: as §1, §2

[25] = tested on: Streptococcus faecalis ATCC 29212; experiment: Antibacterial activity, MIC; assay type: cell-based; conditions: Enterococcus faecalis, ATCC29212; ATCC 29212; agar two-fold dilution, 37° C., 20 hours; read-out: MIC
Protocol: as §1, §2

[26] = In-vivo absorbency (plasma concentrations & pharmacokinetic parameters); design: species or system SD rat (male); conditions: plasma, SD male rat, iv 20 mg/kg; for half-life: rat, iv, 20 mg/kg
Source text: The blood samples from the femoral vein of the rats were taken every hour after administration, and analyzed by bio-assay(agar well method).
Tested animal: SD male Rat (220~340 g)

[27] = as above; design: species or system SD rat (male); conditions: plasma, SD male rat, iv 20 mg/kg, read-out: Plasma Conc.
[28] = ATCC11060, ATCC 11060, agar two-fold dilution, 37° C., 20 hours, read-out: MIC

Row | SMILES | MIC [1] [µg/mL] | MIC [2] [µg/mL] | MIC [4] [µg/mL] | MIC [5] [µg/mL] | MIC [6] [µg/mL] | MIC [7] [µg/mL] | MIC [8] [µg/mL] | MIC [9] [µg/mL] | MIC [10] [µg/mL] | MIC [11] [µg/mL] | MIC [12] [µg/mL] | MIC [13] [µg/mL] | MIC [14] [µg/mL] | MIC [15] [µg/mL] | MIC [16] [µg/mL] | MIC [17] [µg/mL] | MIC [18] [µg/mL] | MIC [19] [µg/mL] | MIC [20] [µg/mL] | MIC [22] [µg/mL] | also measured
1 | CCO/N=C(\C(=O)NC1C(=O)N2C(C(=O)[O-])=C(CSc3nc(N)cc(N)[n+]3CC)CSC12)c1csc(N)n1 (stereo not shown) [Compound I-12] | 4 (≈ 6.9 µM) | 16 (≈ 27.6 µM) | 0.063 (≈ 0.109 µM) | 0.5 (≈ 0.863 µM) | ≤ 0.008 | 0.063 (≈ 0.109 µM) | 0.13 (≈ 0.224 µM) | ≤ 0.008 | ≤ 0.008 | ≤ 0.008 | 0.13 (≈ 0.224 µM) | 0.25 (≈ 0.431 µM) | ≤ 0.008 | 8 (≈ 13.8 µM) | 1 (≈ 1.73 µM) | 2 (≈ 3.45 µM) | 0.5 (≈ 0.863 µM) | 0.13 (≈ 0.224 µM) | 0.031 (≈ 0.0535 µM) | 0.25 (≈ 0.431 µM) | MIC [3]: 0.063 µg/mL (≈ 0.109 µM); MIC ([21]; ATCC11060, 20 h): 0.13 µg/mL (≈ 0.224 µM); MIC [23]: 0.25 µg/mL (≈ 0.431 µM); MIC [24]: 0.063 µg/mL (≈ 0.109 µM); MIC [25]: 32 µg/mL (≈ 55.2 µM)
2 | CC(C)(O/N=C(\C(=O)NC1C(=O)N2C(C(=O)[O-])=C(CSc3nc(N)cc(N)[n+]3N)CSC12)c1nsc(N)n1)C(=O)O (stereo not shown) [Compound I-13] | 4 (≈ 6.39 µM) | > 128 | 0.13 (≈ 0.208 µM) | 1 (≈ 1.6 µM) | 0.031 (≈ 0.0495 µM) | 0.13 (≈ 0.208 µM) | 0.13 (≈ 0.208 µM) | 0.063 (≈ 0.101 µM) | 1 (≈ 1.6 µM) | 0.016 (≈ 0.0256 µM) | 0.13 (≈ 0.208 µM) | 0.13 (≈ 0.208 µM) | ≤ 0.008 | 2 (≈ 3.2 µM) | 2 (≈ 3.2 µM) | 1 (≈ 1.6 µM) | 0.5 (≈ 0.799 µM) | 0.25 (≈ 0.4 µM) | 0.063 (≈ 0.101 µM) | 8 (≈ 12.8 µM) | MIC [3]: 1 µg/mL (≈ 1.6 µM); MIC [23]: 16 µg/mL (≈ 25.6 µM); MIC [24]: 4 µg/mL (≈ 6.39 µM); MIC [25]: > 128 µg/mL
3 | CO/N=C(\C(=O)NC1C(=O)N2C(C(=O)[O-])=C(CSc3nc(N)cc(N)[n+]3N)CSC12)c1csc(N)n1 (stereo not shown) [Compound I-19] | 4 (≈ 7.24 µM) | 8 (≈ 14.5 µM) | 0.13 (≈ 0.235 µM) | 0.25 (≈ 0.452 µM) | 0.016 (≈ 0.029 µM) | 0.13 (≈ 0.235 µM) | 0.13 (≈ 0.235 µM) | ≤ 0.008 | 0.016 (≈ 0.029 µM) | 0.008 (≈ 0.0145 µM) | 0.13 (≈ 0.235 µM) | 0.016 (≈ 0.029 µM) | ≤ 0.008 | 2 (≈ 3.62 µM) | 0.5 (≈ 0.905 µM) | 1 (≈ 1.81 µM) | 0.25 (≈ 0.452 µM) | 0.25 (≈ 0.452 µM) | 0.016 (≈ 0.029 µM) | 0.5 (≈ 0.905 µM) | MIC [3]: 0.13 µg/mL (≈ 0.235 µM); MIC [21, 28]: 0.063 µg/mL (≈ 0.114 µM); MIC [23]: 0.25 µg/mL (≈ 0.452 µM); MIC [24]: 0.063 µg/mL (≈ 0.114 µM); MIC [25]: 32 µg/mL (≈ 57.9 µM)
4 | Cc1c(N)nc(SCC2=C(C(=O)[O-])N3C(=O)C(NC(=O)/C(=N\OC(C)(C)C(=O)O)c4csc(N)n4)C3SC2)[n+](N)c1N (stereo not shown) [Compound I-34] | 4 (≈ 6.26 µM) | 128 (≈ 200 µM) | 0.063 (≈ 0.0986 µM) | 1 (≈ 1.57 µM) | 0.016 (≈ 0.0251 µM) | 0.063 (≈ 0.0986 µM) | 0.13 (≈ 0.204 µM) | 0.063 (≈ 0.0986 µM) | 0.5 (≈ 0.783 µM) | ≤ 0.008 | 0.031 (≈ 0.0485 µM) | 0.063 (≈ 0.0986 µM) | ≤ 0.008 | 2 (≈ 3.13 µM) | 2 (≈ 3.13 µM) | 2 (≈ 3.13 µM) | 0.13 (≈ 0.204 µM) | 0.13 (≈ 0.204 µM) | 0.031 (≈ 0.0485 µM) | 2 (≈ 3.13 µM) | MIC [21, 28]: 0.063 µg/mL (≈ 0.0986 µM); MIC [23]: 4 µg/mL (≈ 6.26 µM); MIC [24]: 2 µg/mL (≈ 3.13 µM); MIC [25]: > 128 µg/mL; concentration at 1 h ([26]; 60 min, read-out: Plasma Conc.): 7800 ng/mL; concentration at 2 h ([26]; 120 min, read-out: Plasma Conc.): 1200 ng/mL; AUC ([26]; two compartment model): 37200 ng·h/mL; half-life ([26]; two compartment model, read-out: T1/2 (α)): 1 min; half-life ([26]; two compartment model, read-out: T1/2 (β)): 21 min; concentration at 0.5 min ([27]; 0.5 min): 181000 ng/mL; concentration at 2.5 min ([27]; 2.5 min): 89000 ng/mL; concentration at 5 min ([27]; 5 min): 68000 ng/mL; concentration at 10 min ([27]; 10 min): 47000 ng/mL; concentration at 20 min ([27]; 20 min): 31000 ng/mL; concentration at 40 min ([27]; 40 min): 15000 ng/mL
